In patent publication US10597388B2, “Pyridazinone herbicides” (FMC CORPORATION, priority 2014, dated 2020):

Experiments:
Format in all cases: in vivo
[1] = test system: barnyardgrass (Echinochloa crus-galli); test: Test A greenhouse herbicide test, pre- and postemergence
Source text: (§1) Seeds of plant species selected from barnyardgrass (Echinochloa crus-galli), kochia (Kochia scoparia), ragweed (common ragweed, Ambrosia elatior), ryegrass, Italian (Italian ryegrass, Lolium multiflorum), crabgrass, large (large crabgrass, Digitaria sanguinalis), foxtail, giant (giant foxtail, Setaria faberii), momingglory (Ipomoea spp.), pigweed (Amaranthus retroflexus), velvetleaf (Abutilon theophrasti), wheat (Triticum aestivum), and corn (Zea mays) were planted into a blend of loam soil and sand and treated preemergence with a directed soil spray using test chemicals formulated in a non-phytotoxic solvent mixture which included a surfactant.
(§2) At the same time, plants selected from these crop and weed species and also blackgrass (Alopecurus myosuroides), and galium (catchweed bedstraw, Galium aparine) were planted in pots containing the same blend of loam soil and sand and treated with postemergence applications of test chemicals formulated in the same manner. Plants ranged in height from 2 to 10 cm and were in the one- to two-leaf stage for the postemergence treatment. Treated plants and untreated controls were maintained in a greenhouse for approximately 10 d, after which time all treated plants were compared to untreated controls and visually evaluated for injury. Plant response ratings, summarized in Table A, are based on a 0 to 100 scale where 0 is no effect and 100 is complete control. A dash (-) response means no test result.

corn (Zea mays) = test: as above; details: Postemergence
Source text: as §1, §2

[2] = test system: foxtail, giant (giant foxtail, Setaria faberii); test: as above
Source text: as §1, §2

kochia (Kochia scoparia) = test: as above
Source text: as §1, §2

[3] = test system: pigweed (Amaranthus retroflexus); test: as above
Source text: as §1, §2

[4] = test system: ragweed (common ragweed, Ambrosia elatior); test: as above
Source text: as §1, §2

[5] = test system: ryegrass, Italian (Italian ryegrass, Lolium multiflorum); test: as above
Source text: as §1, §2

[6] = test system: wheat (Triticum aestivum); test: as above; details: Postemergence
Source text: as §1, §2

[7] = test system: blackgrass (Alopecurus myosuroides); test: Test A greenhouse herbicide test, postemergence
Method in brief: (§3)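 Greenhouse postemergence test: formulated chemicals sprayed on one- to two-leaf plants (2 to 10 cm), grown in loam soil blended with sand. Injury assessed visually about 10 d later against untreated controls, scored 0 (no effect) to 100 (complete control).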

[8] = test system: galium (catchweed bedstraw, Galium aparine); test: Test A greenhouse herbicide test, postemergence
Method in brief: as §3

[9] = test system: barnyardgrass (Echinochloa crus-galli); test: Test B flooded paddy test; details: 250 g ai/ha, Flood; visual rating on scale of 0 to 100 where 0 is no effect and 100 is complete control; 13 to 15 d after treatment
Method in brief: (§4)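 Plants at the 2-leaf stage were flooded to 3 cm above soil, and test compounds were applied directly into the paddy water, which was held at that depth throughout. After 13 to 15 d in a greenhouse, injury was rated visually against untreated controls on a 0–100 scale (0 no effect, 100 complete control).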

[10] = test system: ducksalad (Heteranthera limosa); test: Test B flooded paddy test; details: 250 g ai/ha, Flood; visual rating on scale of 0 to 100 where 0 is no effect and 100 is complete control; 13 to 15 d after treatment
Method in brief: as §4

rice (Oryza sativa) = test: Test B flooded paddy test; details: 250 g ai/ha, Flood; visual rating on scale of 0 to 100 where 0 is no effect and 100 is complete control; 13 to 15 d after treatment
Method in brief: as §4

[11] = test system: sedge, umbrella (small-flower umbrella sedge, Cyperus difformis); test: Test B flooded paddy test; details: 250 g ai/ha, Flood; visual rating on scale of 0 to 100 where 0 is no effect and 100 is complete control; 13 to 15 d after treatment
Method in brief: as §4

[12] = Postemergence, 125 g ai/ha, 0 to 100 scale, 0 no effect, 100 complete control
[13] = Postemergence, 500 g ai/ha, visual rating after approx. 10 d, 0 to 100 scale (0 no effect, 100 complete control)
[14] = Preemergence, 125 g ai/ha, visual injury rating, 0 to 100 scale (0 no effect, 100 complete control), approx. 10 d
[15] = Preemergence, 500 g ai/ha, 0 to 100 scale where 0 is no effect and 100 is complete control
[16] = 125 g ai/ha, 0 to 100 scale, 0 no effect, 100 complete control
[17] = 500 g ai/ha, visual rating after approx. 10 d, 0 to 100 scale (0 no effect, 100 complete control)
[18] = Preemergence, second run of lines under the 500 g ai/ha head, rate not given, 0 to 100 scale

| Compound | Plant response rating, Barnyardgrass [1, 12] | Plant response rating, Barnyardgrass [1, 13] | Plant response rating, Barnyardgrass [1, 15] | Plant response rating, Corn (corn (Zea mays); [16]) | Plant response rating, Corn (corn (Zea mays); [17]) | Plant response rating, Foxtail, Giant [2, 12] | Plant response rating, Foxtail, Giant [2, 13] | Plant response rating, Foxtail, Giant [2, 15] | Plant response rating, Kochia (kochia (Kochia scoparia); [12]) | Plant response rating, Kochia (kochia (Kochia scoparia); [13]) | Plant response rating, Kochia (kochia (Kochia scoparia); [15]) | Plant response rating, Pigweed [3, 12] | Plant response rating, Pigweed [3, 13] | Plant response rating, Pigweed [3, 15] | Plant response rating, Ragweed [4, 12] | Plant response rating, Ragweed [4, 13] | Plant response rating, Ragweed [4, 15] | Plant response rating, Ryegrass, Italian [5, 12] | Plant response rating, Ryegrass, Italian [5, 13] | Plant response rating, Ryegrass, Italian [5, 15] | further results |
| --- | --- | --- | --- | --- | --- | --- | --- | --- | --- | --- | --- | --- | --- | --- | --- | --- | --- | --- | --- | --- | --- |
| Cc1ccc2ccccc2c1-c1c(O)c([N+](=O)[O-])nn(C)c1=O [Compound 177] | 0 | 0 | 0 | 0 | 0 | 0 | 0 | 0 | 0 | 0 | 0 | 0 | 0 | 0 | 0 | 0 | 0 | 0 | 0 | 0 | Plant response rating, Barnyardgrass [1, 14]: 0; Plant response rating, Foxtail, Giant [2, 14]: 0; Plant response rating, Kochia (kochia (Kochia scoparia); [14]): 0; Plant response rating, Pigweed [3, 14]: 0; Plant response rating, Ragweed [4, 14]: 0; Plant response rating, Ryegrass, Italian [5, 14]: 0; Plant response rating, Wheat [6, 16]: 0; Plant response rating, Wheat [6, 17]: 0; Plant response rating, Blackgrass [7, 16]: 0; Plant response rating, Blackgrass [7, 17]: 0; Plant response rating, Galium [8, 16]: 0; Plant response rating, Galium [8, 17]: 0; Plant response rating, Barnyardgrass [9]: 0; Plant response rating, Ducksalad [10]: 0; Plant response rating, Rice (rice (Oryza sativa)): 0; Plant response rating, Sedge, Umbrella [11]: 0 |
| Cc1nn(C)c(=O)c(-c2ccc(Cl)c3ccccc23)c1OP(C)(C)=O [Compound 187] | 30 | 80 | 90 | 0 | 30 | 50 | 80 | 70 | 90 | 100 | 100 | 70 | 90 | 100 | 100 | 100 | 80 | 100 | 100 | 100 | Plant response rating, Barnyardgrass [1, 18]: 70; Plant response rating, Foxtail, Giant [2, 18]: 20; Plant response rating, Kochia (kochia (Kochia scoparia); [18]): 60; Plant response rating, Pigweed [3, 18]: 90; Plant response rating, Ragweed [4, 18]: 70; Plant response rating, Ryegrass, Italian [5, 18]: 100; Plant response rating, Wheat [6, 16]: 0; Plant response rating, Wheat [6, 17]: 30; Plant response rating, Blackgrass [7, 16]: 40; Plant response rating, Blackgrass [7, 17]: 70; Plant response rating, Galium [8, 16]: 90; Plant response rating, Galium [8, 17]: 100; Plant response rating, Barnyardgrass [9]: 0; Plant response rating, Ducksalad [10]: 0; Plant response rating, Rice (rice (Oryza sativa)): 20; Plant response rating, Sedge, Umbrella [11]: 0 |
